# Assay results: ChEMBL document CHEMBL1151642, “Dictyol H, a New Tricyclic Diterpenoid from the Brown Seaweed Dictyota dentata” (J Nat Prod, 1985)
# The source made the active and inactive calls. The calls are words filed in the database; no cut-off is given here.
# Experiments:
# [1] = Antitumor activity against human 9KB cells; assay type: functional, cell-based
# Pseudomonas aeruginosa = assay: Antimicrobial activity against Pseudomonas aeruginosa at 100 ug; assay type: functional, organism-based
# Escherichia coli = assay: Antimicrobial activity against Escherichia coli at 100 ug; assay type: functional, organism-based
structure (smiles),measurement,setting,value
C=C1CC[C@@H]([C@@]2(C)CC[C@H](C(C)(C)OC(C)=O)O2)[C@@H](O)[C@H]2C(C)=CC[C@@H]12 [DICTYOL H],IC50,[1],22 µg/mL
same,Activity,Pseudomonas aeruginosa,inactive
same,Activity,Escherichia coli,inactive
